# Data published in patent US6355799B1, “Substituted benzene compounds, process for their preparation, and herbicidal and defoliant compositions containing them” (ISK Americas Incorporated, priority 1997, dated 2002).
# Tests used:
# Format in all cases: in vivo
# [1] = tested on: lambsquarters (Chenopodium album, CHEAL); experiment: Post-emerge test, greenhouse herbicide activity screening; settings: post-emerge, 14 days after application, rating scale 0-100
# Summary of the method: (§1)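 Visual ratings on a 0-100 scale (0 no damage, 100 all plants dead) were taken at 14 days after treatment. Rates of 15-1000 g ai/ha in acetone, 187 l/ha, were sprayed onto soil one day after planting (pre-emerge) or onto 2-3 leaf plants with 0.25% v/v surfactant (post-emerge).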
# [2] = tested on: johnsongrass (Sorghum halepense, SORHA); experiment: as above; settings: post-emerge, 14 days after application, rating scale 0-100
# Summary of the method: as §1
# [3] = tested on: sicklepod (Cassia obtusifolia, CASOB); experiment: as above; settings: post-emerge, 14 days after application, rating scale 0-100
# Summary of the method: as §1
# [4] = tested on: velvetleaf (Abutilon theophrasti, ABUTH); experiment: as above; settings: post-emerge, 14 days after application, rating scale 0-100
# Summary of the method: as §1
# [5] = tested on: redroot pigweed (Amaranthus retroflexus, AMARE); experiment: as above; settings: post-emerge, 14 days after application
# Summary of the method: as §1
# [6] = tested on: barnyardgrass (Echinochloa crus-galli, ECHCG); experiment: as above; settings: post-emerge, 14 days after application, rating scale 0-100
# Summary of the method: as §1
# [7] = tested on: ivyleaf morningglory (Ipomoea hederacea, IPOHE); experiment: as above; settings: post-emerge, 14 days after application, rating scale 0-100
# Summary of the method: as §1
# [8] = tested on: green foxtail (Setaria viridis, SETVI); experiment: as above; settings: post-emerge, 14 days after application, rating scale 0-100
# Summary of the method: as §1
# [9] = tested on: large crabgrass (Digitaria sanguinalis, DIGSA); experiment: as above; settings: post-emerge, 14 days after application, rating scale 0-100
# Summary of the method: as §1
# [10] = tested on: redroot pigweed (Amaranthus retroflexus, AMARE); experiment: Pre-emerge test, greenhouse herbicide activity screening; settings: pre-emerge, 14 days after application
# Summary of the method: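 Rating: 0–100 visual injury, 14 DAA. Application: acetone, 187 l/ha, 15–1000 g ai/ha, flat-fan track sprayer with nozzle 40–45 cm above soil or canopy. Post-emerge runs used 0.25% v/v surfactant on 2–3 leaf plants.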
# [11] = tested on: lambsquarters (Chenopodium album, CHEAL); experiment: as above; settings: pre-emerge, 14 days after application
# Summary of the method: (§2)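 Compounds in acetone were track-sprayed at 187 l/ha, 15–1000 g ai/ha, onto sandy loam pots. Pre-emerge seeds were sown one day before spraying, with surface watering afterwards. Post-emerge plants were at the 2–3 leaf stage and sprayed with 0.25% v/v non-ionic surfactant. Injury was rated 0–100 at 14 days.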
# [12] = tested on: johnsongrass (Sorghum halepense, SORHA); experiment: as above; settings: pre-emerge, 14 days after application
# Summary of the method: as §2
# [13] = tested on: sicklepod (Cassia obtusifolia, CASOB); experiment: as above; settings: pre-emerge, 14 days after application
# Summary of the method: as §2
# [14] = tested on: velvetleaf (Abutilon theophrasti, ABUTH); experiment: as above; settings: pre-emerge, 14 days after application
# Summary of the method: as §2
# [15] = tested on: barnyardgrass (Echinochloa crus-galli, ECHCG); experiment: as above; settings: pre-emerge, 14 days after application
# Summary of the method: as §2
# [16] = tested on: ivyleaf morningglory (Ipomoea hederacea, IPOHE); experiment: as above; settings: pre-emerge, 14 days after application
# Summary of the method: as §2
# [17] = tested on: green foxtail (Setaria viridis, SETVI); experiment: as above; settings: pre-emerge, 14 days after application
# Summary of the method: as §2
# [18] = tested on: large crabgrass (Digitaria sanguinalis, DIGSA); experiment: as above; settings: pre-emerge, 14 days after application
# Summary of the method: as §2
# [19] = 250 g ai/ha, rating scale 0-100
smiles,measurement,setting,value
"COc1c(Cl)cc(F)c(-n2c(=O)cc(C(F)(F)F)n(C)c2=O)c1OC(=O)c1ccc2ccccc2c1 [Compound 16-7, 3-[4-chloro-6fluoro-3-methoxy-2-(2-naphthoyloxy)phenyl]-1-methyl-6-trifluoromethyl-2,4(1H, 3H)-pyrimidinedione]",Post-emerge Herbicidal Activity CHEAL (phytotoxicity rating),[1]; 63 g ai/ha,0
same,Post-emerge Herbicidal Activity CHEAL (phytotoxicity rating),[1]; 250 g ai/ha,0
same,Post-emerge Herbicidal Activity SORHA (phytotoxicity rating),[2]; 63 g ai/ha,0
same,Post-emerge Herbicidal Activity SORHA (phytotoxicity rating),[2]; 250 g ai/ha,0
same,Post-emerge Herbicidal Activity CASOB (phytotoxicity rating),[3]; 63 g ai/ha,0
same,Post-emerge Herbicidal Activity CASOB (phytotoxicity rating),[3]; 250 g ai/ha,30
same,Post-emerge Herbicidal Activity ABUTH (phytotoxicity rating),[4]; 63 g ai/ha,0
same,Post-emerge Herbicidal Activity ABUTH (phytotoxicity rating),[4]; 250 g ai/ha,0
same,Post-emerge Herbicidal Activity AMARE (phytotoxicity rating),"[5]; 63 g ai/ha, rating scale 0-100 (0 no damage, 100 complete death)",0
same,Post-emerge Herbicidal Activity AMARE (phytotoxicity rating),[5]; [19],0
same,Post-emerge Herbicidal Activity ECHCG (phytotoxicity rating),[6]; 63 g ai/ha,0
same,Post-emerge Herbicidal Activity ECHCG (phytotoxicity rating),[6]; 250 g ai/ha,0
same,Post-emerge Herbicidal Activity IPOHE (phytotoxicity rating),[7]; 63 g ai/ha,0
same,Post-emerge Herbicidal Activity IPOHE (phytotoxicity rating),[7]; 250 g ai/ha,30
same,Post-emerge Herbicidal Activity SETVI (phytotoxicity rating),[8]; 63 g ai/ha,0
same,Post-emerge Herbicidal Activity SETVI (phytotoxicity rating),[8]; 250 g ai/ha,0
same,Post-emerge Herbicidal Activity DIGSA (phytotoxicity rating),[9]; 63 g ai/ha,0
same,Post-emerge Herbicidal Activity DIGSA (phytotoxicity rating),[9]; 250 g ai/ha,0
same,phytotoxicity rating AMARE,"[10]; 63 g ai/ha, rating scale 0-100",0
same,phytotoxicity rating AMARE,[10]; [19],50
same,phytotoxicity rating CHEAL,"[11]; 63 g ai/ha, rating scale 0-100",0
same,phytotoxicity rating CHEAL,[11]; [19],0
same,phytotoxicity rating SORHA,"[12]; 63 g ai/ha, rating scale 0-100",0
same,phytotoxicity rating SORHA,[12]; [19],0
same,phytotoxicity rating CASOB,"[13]; 63 g ai/ha, rating scale 0-100",0
same,phytotoxicity rating CASOB,[13]; [19],0
same,phytotoxicity rating ABUTH,"[14]; 63 g ai/ha, rating scale 0-100",0
same,phytotoxicity rating ABUTH,[14]; [19],0
same,phytotoxicity rating ECHCG,"[15]; 63 g ai/ha, rating scale 0-100",0
same,phytotoxicity rating ECHCG,[15]; [19],0
same,phytotoxicity rating IPOHE,"[16]; 63 g ai/ha, rating scale 0-100",0
same,phytotoxicity rating IPOHE,[16]; [19],0
same,phytotoxicity rating SETVI,"[17]; 63 g ai/ha, rating scale 0-100",0
same,phytotoxicity rating SETVI,[17]; [19],0
same,phytotoxicity rating DIGSA,"[18]; 63 g ai/ha, rating scale 0-100",0
same,phytotoxicity rating DIGSA,[18]; [19],0
"Cn1c(C(F)(F)F)cc(=O)n(-c2c(F)cc(Cl)cc2NC(=O)c2ccc3ccccc3c2)c1=O [Compound 2-145, 3-[4-chloro-6-fluoro-2-(2-naphthoylamino)phenyl]-1-methyl-6-trifluoromethyl-2,4(1H, 3H)-pyrimidinedione]",SORHA phytotoxicity rating,[2]; 63 g ai/ha,0
same,SORHA phytotoxicity rating,[2]; 250 g ai/ha,10
same,CASOB phytotoxicity rating,[3]; 63 g ai/ha,100
same,CASOB phytotoxicity rating,[3]; 250 g ai/ha,100
same,ABUTH phytotoxicity rating,[4]; 63 g ai/ha,100
same,ABUTH phytotoxicity rating,[4]; 250 g ai/ha,100
same,AMARE phytotoxicity rating,"[5]; 63 g ai/ha, rating scale 0-100",95
same,AMARE phytotoxicity rating,[5]; [19],100
same,ECHCG phytotoxicity rating,[6]; 63 g ai/ha,0
same,ECHCG phytotoxicity rating,[6]; 250 g ai/ha,20
same,IPOHE phytotoxicity rating,[7]; 63 g ai/ha,100
same,IPOHE phytotoxicity rating,[7]; 250 g ai/ha,100
same,SETVI phytotoxicity rating,[8]; 63 g ai/ha,0
same,SETVI phytotoxicity rating,[8]; 250 g ai/ha,40
same,DIGSA phytotoxicity rating,[9]; 63 g ai/ha,0
same,DIGSA phytotoxicity rating,[9]; 250 g ai/ha,10
same,phytotoxicity rating AMARE,"[10]; 63 g ai/ha, scale 0-100",100
same,phytotoxicity rating AMARE,"[10]; 250 g ai/ha, scale 0-100",100
same,phytotoxicity rating CHEAL,"[11]; 63 g ai/ha, scale 0-100",100
same,phytotoxicity rating CHEAL,"[11]; 250 g ai/ha, scale 0-100",100
same,phytotoxicity rating SORHA,"[12]; 63 g ai/ha, scale 0-100",30
same,phytotoxicity rating SORHA,"[12]; 250 g ai/ha, scale 0-100",50
same,phytotoxicity rating CASOB,"[13]; 63 g ai/ha, scale 0-100",40
same,phytotoxicity rating CASOB,"[13]; 250 g ai/ha, scale 0-100",90
same,phytotoxicity rating ABUTH,"[14]; 63 g ai/ha, scale 0-100",90
same,phytotoxicity rating ABUTH,"[14]; 250 g ai/ha, scale 0-100",100
same,phytotoxicity rating ECHCG,"[15]; 63 g ai/ha, scale 0-100",35
same,phytotoxicity rating ECHCG,"[15]; 250 g ai/ha, scale 0-100",60
same,phytotoxicity rating IPOHE,"[16]; 63 g ai/ha, scale 0-100",10
same,phytotoxicity rating IPOHE,"[16]; 250 g ai/ha, scale 0-100",100
same,phytotoxicity rating SETVI,"[17]; 63 g ai/ha, scale 0-100",60
same,phytotoxicity rating SETVI,"[17]; 250 g ai/ha, scale 0-100",100
same,phytotoxicity rating DIGSA,"[18]; 63 g ai/ha, scale 0-100",90
same,phytotoxicity rating DIGSA,"[18]; 250 g ai/ha, scale 0-100",100
